Read-outs that look alike come from different tables or passages of the source.
Assays:
CYP1A2 = target: T1, CYP1A2 (Homo sapiens, UniProt P05177); assay: Inhibition of human cytochrome P450s, human liver microsomes; format: in vitro ADME
T1 construct: was investigated using human liver microsomes; from tissue; host or cells: human liver microsomes
T1 sequence (P05177 1-516): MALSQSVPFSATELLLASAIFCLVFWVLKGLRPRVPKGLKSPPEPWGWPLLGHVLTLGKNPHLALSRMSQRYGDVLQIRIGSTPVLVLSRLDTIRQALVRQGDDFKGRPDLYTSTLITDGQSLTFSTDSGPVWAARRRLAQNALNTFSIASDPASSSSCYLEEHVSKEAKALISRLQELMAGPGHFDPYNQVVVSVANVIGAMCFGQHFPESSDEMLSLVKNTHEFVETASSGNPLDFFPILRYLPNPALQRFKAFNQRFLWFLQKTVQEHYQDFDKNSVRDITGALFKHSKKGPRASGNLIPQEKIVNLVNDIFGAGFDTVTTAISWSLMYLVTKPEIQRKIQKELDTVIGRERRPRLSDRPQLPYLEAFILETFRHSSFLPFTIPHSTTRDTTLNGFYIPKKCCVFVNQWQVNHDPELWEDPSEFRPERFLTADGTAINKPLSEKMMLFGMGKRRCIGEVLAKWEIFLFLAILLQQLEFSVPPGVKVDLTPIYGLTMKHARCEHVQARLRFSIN

[1] = rodent and nonrodent species; cited from earlier work
[2] = tested on: cell lines, both from solid as well as hematologic tumors; conditions: large number of cell lines; cited from earlier work
CYP2D6 = target: T2, CYP2D6 (Homo sapiens, UniProt P10635); assay: Inhibition of human cytochrome P450s, human liver microsomes; format: in vitro ADME; conditions: Bufuralol 1-hydroxylation, mean ± SEM
T2 construct: was investigated using human liver microsomes; from tissue; host or cells: human liver microsomes

[3] = tested on: circulating tumor cells (CTC); assay: Phase 2 study: circulating tumor cell (CTC) evaluation; format: in vivo, human; conditions: for CTC Fold Change: C1D1 to C5D1; for CTC Count (C5D1): onvansertib+abiraterone
Method: Circulating tumor cell (CTC) evaluation, reported as favorable or unfavorable (<5 vs.≥CTC/7.5 ml of blood), is shown in FIG. 8. At baseline, 25 (78%) patients had unfavorable CTC count with median of 19 CTC/7.5 ml. Ten of the unfavorable patients were re-analyzed after 12 weeks of treatment.

[4] = Pharmacokinetics from the prior phase 1 trial; format: in vivo; conditions: 24 mg/m^2 dose
Excerpt: This is consistent with the observed downward changes of PSA values for patients shown above.

[5] = tested on: adult patients with advanced/metastatic solid tumors; conditions: cited from earlier work
CYP3A4 = target: T3, CYP3A4 (Homo sapiens, UniProt P08684); assay: Inhibition of human cytochrome P450s, human liver microsomes; format: in vitro ADME; conditions: mean ± SEM
T3 construct: was investigated using human liver microsomes; from tissue; host or cells: human liver microsomes

CYP2C9 = target: T4, CYP2C9 (Homo sapiens, UniProt P11712); assay: as above; format: in vitro ADME; conditions: Diclofenac 4-hydroxylation, mean ± SEM
T4 construct: was investigated using human liver microsomes; from tissue; host or cells: human liver microsomes

CYP2C8 = target: T5, CYP2C8 (Homo sapiens, UniProt P10632); assay: as above; format: in vitro ADME
T5 construct: was investigated using human liver microsomes; from tissue; host or cells: human liver microsomes
T5 sequence (P10632 1-490): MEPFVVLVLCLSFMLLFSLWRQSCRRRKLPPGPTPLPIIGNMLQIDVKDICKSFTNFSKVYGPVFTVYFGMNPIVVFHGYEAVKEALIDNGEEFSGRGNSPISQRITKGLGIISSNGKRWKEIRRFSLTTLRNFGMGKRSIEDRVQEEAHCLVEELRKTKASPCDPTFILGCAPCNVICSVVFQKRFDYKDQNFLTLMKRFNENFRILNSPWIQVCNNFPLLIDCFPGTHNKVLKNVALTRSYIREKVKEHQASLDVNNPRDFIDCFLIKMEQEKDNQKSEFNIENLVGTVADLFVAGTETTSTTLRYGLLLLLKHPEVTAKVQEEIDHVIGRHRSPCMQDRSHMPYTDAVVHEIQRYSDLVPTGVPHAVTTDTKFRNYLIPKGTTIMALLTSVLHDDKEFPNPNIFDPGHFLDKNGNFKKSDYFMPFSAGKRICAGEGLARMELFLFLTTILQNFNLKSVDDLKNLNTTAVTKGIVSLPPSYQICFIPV

CYP2C19 = target: T6, CYP2C19 (Homo sapiens, UniProt P33261); assay: as above; format: in vitro ADME; conditions: Mephenytoin 4-hydroxylation, mean ± SEM
T6 construct: was investigated using human liver microsomes; from tissue; host or cells: human liver microsomes

xenograft tumor = conditions: mice, oral administration, well tolerated doses; cited from earlier work
[6] = tested on: patients with metastatic castration-resistant prostate cancer (mCRPC)
[7] = Phase 2 study Arm A: absolute neutrophil counts (ANC); format: in vivo, human; conditions: 7 patients plotted, patients 02-002 and 02-005
Method: To evaluate this further, neutrophil levels were assessed for patients within Arm A of the current trial. Absolute neutrophil counts (ANC) are plotted in FIG. 3 for 7 patients, with ANC 1.5 indicated as the threshold for Grade 2 (CTCAE version 4.03). Two patients experienced ≥Grade 2 neutropenia after the first cycle of treatment (02-002 and 02-005).

[8] = ten patients with unfavorable baseline CTC re-analyzed after 12 weeks of treatment

T3 sequence (P08684 whole entry): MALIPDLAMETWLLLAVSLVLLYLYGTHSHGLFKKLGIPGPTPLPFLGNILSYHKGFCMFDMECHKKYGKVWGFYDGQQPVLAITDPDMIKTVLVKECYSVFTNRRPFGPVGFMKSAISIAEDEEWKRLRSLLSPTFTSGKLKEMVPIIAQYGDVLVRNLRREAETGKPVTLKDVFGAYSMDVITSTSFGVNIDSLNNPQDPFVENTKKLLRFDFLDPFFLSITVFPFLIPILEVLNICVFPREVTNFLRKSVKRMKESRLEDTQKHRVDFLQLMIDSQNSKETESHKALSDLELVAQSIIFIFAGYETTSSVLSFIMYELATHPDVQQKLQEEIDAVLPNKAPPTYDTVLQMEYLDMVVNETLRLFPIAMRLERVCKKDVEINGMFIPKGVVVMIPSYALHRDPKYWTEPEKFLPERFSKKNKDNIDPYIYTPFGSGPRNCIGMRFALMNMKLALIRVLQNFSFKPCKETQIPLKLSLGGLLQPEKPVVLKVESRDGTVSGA
T4 sequence (P11712 whole entry): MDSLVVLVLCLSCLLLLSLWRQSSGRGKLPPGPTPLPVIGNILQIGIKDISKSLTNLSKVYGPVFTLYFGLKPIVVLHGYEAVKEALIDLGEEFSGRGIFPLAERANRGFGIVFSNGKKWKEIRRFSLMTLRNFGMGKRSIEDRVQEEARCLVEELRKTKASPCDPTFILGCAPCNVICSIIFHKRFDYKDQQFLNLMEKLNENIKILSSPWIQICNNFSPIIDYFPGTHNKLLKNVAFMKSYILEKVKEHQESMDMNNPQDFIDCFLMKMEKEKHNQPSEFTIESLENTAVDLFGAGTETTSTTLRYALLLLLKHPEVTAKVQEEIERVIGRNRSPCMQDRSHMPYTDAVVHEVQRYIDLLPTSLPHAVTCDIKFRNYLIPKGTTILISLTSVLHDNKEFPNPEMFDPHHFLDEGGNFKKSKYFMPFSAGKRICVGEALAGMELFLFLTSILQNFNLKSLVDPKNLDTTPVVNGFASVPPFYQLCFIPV
T6 sequence (P33261 whole entry): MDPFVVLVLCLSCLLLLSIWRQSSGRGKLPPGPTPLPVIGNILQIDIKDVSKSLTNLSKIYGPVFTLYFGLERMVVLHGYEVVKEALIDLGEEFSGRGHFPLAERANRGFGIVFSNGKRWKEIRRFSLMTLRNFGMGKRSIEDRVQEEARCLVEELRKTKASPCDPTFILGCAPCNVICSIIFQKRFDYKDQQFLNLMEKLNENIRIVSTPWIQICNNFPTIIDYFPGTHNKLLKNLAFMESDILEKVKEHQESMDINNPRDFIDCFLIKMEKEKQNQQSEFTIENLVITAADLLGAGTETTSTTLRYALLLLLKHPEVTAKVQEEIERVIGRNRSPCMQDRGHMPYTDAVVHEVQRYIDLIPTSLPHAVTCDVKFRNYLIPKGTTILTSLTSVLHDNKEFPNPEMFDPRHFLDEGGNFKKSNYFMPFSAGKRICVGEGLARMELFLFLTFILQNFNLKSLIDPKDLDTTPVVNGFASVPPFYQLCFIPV
T2 sequence (P10635 whole entry): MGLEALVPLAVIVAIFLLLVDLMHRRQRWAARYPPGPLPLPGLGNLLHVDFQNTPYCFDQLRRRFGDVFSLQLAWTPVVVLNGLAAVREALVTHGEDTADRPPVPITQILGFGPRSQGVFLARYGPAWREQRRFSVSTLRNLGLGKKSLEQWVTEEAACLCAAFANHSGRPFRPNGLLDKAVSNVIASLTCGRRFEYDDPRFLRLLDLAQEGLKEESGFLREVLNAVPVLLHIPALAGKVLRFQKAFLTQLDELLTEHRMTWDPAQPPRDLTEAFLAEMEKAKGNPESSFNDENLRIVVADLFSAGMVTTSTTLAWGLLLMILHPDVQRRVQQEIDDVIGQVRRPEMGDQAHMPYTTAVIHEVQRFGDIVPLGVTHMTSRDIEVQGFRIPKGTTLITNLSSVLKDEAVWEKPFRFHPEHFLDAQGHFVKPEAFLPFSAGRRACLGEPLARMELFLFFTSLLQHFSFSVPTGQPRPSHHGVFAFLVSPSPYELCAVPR

In the case of `CN1CCN(c2ccc(OC(F)(F)F)c(Nc3ncc4c(n3)-c3c(c(C(N)=O)nn3CCO)CC4)c2)CC1` [onvansertib, 1-(2-hydroxyethyl)-8-{[5-(4-methylpiperazin-1-yl)-2-(trifluoromethoxy)phenyl]amino}-4,5-dihydro-1H-pyrazolo[4,3-h]quinazoline-3-carboxamide], the “inhibitory effects against CYP1A2” value (CYP1A2) is listed as “No significant inhibitory effects”, the IC50 (CYP1A2; Tacrine 1-hydroxylation) is listed as > 100 µM and the oral bioavailability [1] is listed as “good oral bioavailability”. For the same compound, the “activity in proliferation assays” value [2] was “low nanomolar activity”, the IC50 (CYP2D6) was 26.8 ± 5.4 µM and the “CTC Fold Change” value ([3]; patient 02-003) was 17.9. The “CTC Count (C5D1)” value ([3]; patient 02-003, CTC count at C1D1 4.4) was 78.6, the “CTC Fold Change” value ([3]; patient 02-007) was 6.9 and the “CTC Count (C5D1)” value ([3]; patient 02-007, CTC count at C1D1 2.5) was 17.3. For the same compound, the “CTC Fold Change” value ([3]; patient 03-004) was 3.0, the “CTC Count (C5D1)” value ([3]; patient 03-004, CTC count at C1D1 0.4) was 1.2 and the “CTC Fold Change” value ([3]; patient 03-009) was 1.5. For the same compound, the “CTC Count (C5D1)” value ([3]; patient 03-009, CTC count at C1D1 3.7) was 5.4, the “CTC Fold Change” value ([3]; patient 03-013) was 1.4 and the “CTC Count (C5D1)” value ([3]; patient 03-013, CTC count at C1D1 2.2) was 3.0. The “median time on treatment” value ([3]; patients with decrease CTC (n=5), to-date) was 7 months, the “median time on treatment” value ([3]; patients with increase CTC (n=5)) was 5 months and the “patients converted from unfavorable to favorable CTC level (<5 CTC/7.5 ml)” value [3, 8] was 40%. For the same compound, the “patients with a ≥80% CTC decrease” value [3, 8] was 50%, the “patients with no detectable CTC” value [3, 8] was 30% and the “time at which the amount of onvansertib is below the 10×IC50 value” [4] was 160 h. For the same compound, the concentration at 290 h ([4]; human, plasma, oral, 0.1 ng/ml is the limit of quantitation, read-out: drug concentrations at 290 hours (˜12 days)) was < 0.1 ng/mL, the DLTs observed ([5]; 36 mg/m^2/day, four patients treated) was “two” and the “patients who developed DLTs” value ([5]; 48 mg/m^2/day) was 2 of 3. For the same compound, the “dose-limiting toxicities (DLT)” value ([5]; first 3 dose levels (6, 12, and 24 mg/m^2/day)) was “No DLTs”, the “outcome of the one evaluable patient with prostate cancer” value ([5]; in vivo) was “disease progression” and the primary toxicities ([5]; in vivo) was “thrombocytopenia and neutropenia”. The “best observed treatment response: disease stabilization” value ([5]; of the 16 evaluable patients) was 5 patients, the “maximum tolerated dose (MTD)” value ([5]; oral, 5 consecutive days every 3 weeks) was 24 mg/m^2/day and the “recovery of hematologic toxicities” value ([5]; thrombocytopenia and neutropenia, reversible) was ≤ 3 weeks. The IC50 (CYP3A4; Midazolam l′-hydroxylation) was 66.2 ± 4 µM, the IC50 (CYP3A4; Testosterone 6β-hydroxylation) was 52.7 ± 9.8 µM and the IC50 (CYP2C9) was 20.4 ± 3.2 µM. For the same compound, the IC50 (CYP2C8) was 20.2 ± 1.6 µM, the IC50 (CYP2C19) was 36.9 ± 15.7 µM and the xenograft tumor growth (xenograft tumor) was “inhibits xenograft tumor growth”. The “patients with disease stabilization after 5 or more treatment cycles” value ([6]; 03-013 (Arm A) and 01-024 (Arm B)) was “two”, the “initial PSA stabilization or decrease in AR-V7+ subjects” value ([6]; AR-V7+ subjects (n=4), August 2019) was “all” and the “AR-V7 positive patients achieving the primary endpoint of stable disease” value ([6]; AR-V7 positive patients who completed 3 months of treatment) was “Three of 4”. For the same compound, the “initial PSA stabilization or decrease in AR-V7 positive patients” value ([6]; AR-V7 positive patients who completed at least 1 cycle (n=5)) was “all”, the “patients achieving the efficacy endpoint (PSA stabilization)” value ([6]; Arm A (n=14)) was 5 patients and the “patients remaining on treatment for >1 year” value ([6]; Arm A (n=14)) was 2 patients. For the same compound, the “patients with SD or PR at 12 weeks” value ([6]; Arm A (n=14), 8 of 14) was 57%, the “patients who have or had progression-free survival” value ([6]; Arm A, 3 of 14) was 21% and the “PSA values at day 8 relative to baseline” value ([6]; Arm A, after dosing on days 1-5, with abiraterone and prednisone, then increase until next cycle) was “go down”. For the same compound, the “subjects with initial disease stabilization or reduction, based on PSA levels” value ([6]; Arm B) was 3 subjects, the “patients achieving the efficacy endpoint (PSA stabilization)” value ([6]; Arm B (n=5)) was 3 patients and the “patients with SD at 12 weeks” value ([6]; Arm B (n=5), 4 of 5) was 80%. The “patients who have or had progression-free survival of >7 months” value ([6]; Arm B, 3 of 5) was 60%, the “tumor shrinkage by CT scan at the end of the study” value ([6]; Patient 03-013 (AR-V7), Arm A) was ~30% and the “PSA level increase after onvansertib was added” value ([6]; Patient 03-013 (AR-V7), Arm A, 84 days, with abiraterone/prednisone) was 8.4%. For the same compound, the “PSA level above the baseline (C1D1) PSA level” value ([6]; Patient 03-013, Arm A, into the fifth cycle) was “below 25%”, the “patients with decreases in PSA levels” value ([6]; after 1 cycle of treatment with addition of onvansertib, eighteen out of 25) was 72% and the “AR-V7+ patients who met the primary efficacy endpoint” value ([6]; of AR-V7+ subjects (n=4), 03-013, 01-024) was “Two”. The “patients confirmed AR-V7+ that have shown a PSA response” value ([6]; patients who completed 4 cycles (12 weeks), onvansertib added to abiraterone) was 2 of 6 and the “patients with ≥Grade 2 neutropenia after the first cycle” value [7] was “Two”.

From patent US20220184086A1, “PLK1 INHIBITORS AND PSA LEVELS IN PROSTATE CANCER” (Cardiff Oncology, Inc., priority 2019, published 2022)
